Laboratory results: US20220411750A1, “CELL STRUCTURE, PRODUCTION METHOD THEREOF, AND METHOD FOR EVALUATING HEPATOTOXICITY OF SUBSTANCE TO BE TESTED” (TOPPAN INC., priority 2019, published 2022)
Like-named read-outs stand apart in the source and are kept apart here.

What was measured:
[1] = test system: two-dimensional primary human hepatocytes (2D PHH); conditions: literature data, "Outside" = Outside measurement range; cited from earlier work
[2] = cited from earlier work; for Toxicity: Yes/No, Yes for No. 1-14, No for No. 15-18
[3] = maximum drug concentration used for MOS value; cited from earlier work
[4] = test system: cell structure having a liver sinusoidal network produced using CMF (Example A); assay: Toxicity evaluation by ATP assay, cell structure of Example A (produced using CMF); conditions: for IC50: Homo sapiens, read-out: IC50 Example A; for MOS value [IC50/Cmax] Example A: ATP assay IC50 divided by Cmax; for MOS value [IC50/Cmax] Example A / IC50 Example A: cell structure produced using CMF, "Outside" = Outside measurement range; for IC50 Example A: ATP assay, drug medium from day 7, replaced day 10, assay after 14 days
Description: (§1) 100 mg of a type I collagen sponge fragment derived from pig skin (commercially available from NH Foods Ltd.) was heated at 200° C. for 24 hours, and thus a collagen component of which at least a part was cross-linked (cross-linked collagen component) was obtained. […] 50 mg of the cross-linked collagen component was put into a 15 mL tube, 5 mL of ultrapure water was added thereto, and the mixture was homogenized using a homogenizer (VH-10 commercially available from As One Corporation) for 6 minutes.
(§2) An aqueous solution containing the homogenized cross-linked collagen component was centrifuged at 10,000 rpm for 10 minutes under conditions of 21° C. The supernatant was suctioned, and collagen pellets were mixed with 5 mL of fresh ultrapure water to prepare a collagen solution. While the tube containing the collagen solution was kept on ice, an ultrasonic treatment was performed using a sonicator (VC50 commercially available from Sonics and Materials) at 100 V for 20 seconds, the sonicator was removed, and the tube containing the collagen solution was then cooled on ice for 10 seconds, which was repeated 100 times. After the ultrasonic treatment was performed 100 times, the collagen solution was filtered with a filter having a pore size of 40 μm to obtain a dispersion solution containing a defibrated collagen component (sCMF). The dispersion solution was freeze-dried by a conventional method to obtain a defibrated collagen component (sCMF) as a dried product.
(§3) A dispersion solution A in which the defibrated collagen component was dispersed in a medium (DMEM) containing serum in which 10 mg/mL of fibrinogen (commercially available from Sigma) was dissolved so that the concentration was 30 mg/mL was obtained. In addition, a dispersion solution B in which cells were dispersed in a medium (DMEM) containing serum in which 10 U/mL of thrombin (commercially available from Sigma) was dissolved so that the total number of cells per well was 30,000 cells. 10 μL of a suspension in which the obtained dispersion solution A (defibrated collagen component) and dispersion solution B were mixed at 1:1 was added to each well of a 48-well plate.
(§4) Regarding the medium, a mixed medium (mass ratio: 1:1) containing a medium for vascular endothelia 1 (ECM) and a medium for mesenchymal stem cell proliferation (MSCGM2), a medium for vascular endothelia 1 (ECM), or a medium for vascular endothelia 1 (ECM) and a medium for hepatocytes (d-HCGM) were used.
(§5) 10 days after the start of the culture, again, the medium was replaced with a medium in which the drug was dissolved, and after 14 days, the cell activity was quantified by ATP assay.
(§6) The toxicity was evaluated with IC50 and MOS value. The MOS value is an index used for toxicity evaluation as a value considering the maximum drug concentration (Cmax).

[5] = test system: cell structure having a liver sinusoidal network produced using heparin and a collagen solution (Example B); assay: Toxicity evaluation by ATP assay, cell structure of Example B (produced using heparin and a collagen solution); conditions: for IC50: Homo sapiens, read-out: IC50 Example B; for IC50 Example B: ATP assay, cell structure produced using heparin and collagen solution
Description: as §5
(§7) PXB cells, SEC and LX2 were mixed so that the following proportions and cell amount were obtained, and thereby a cell mixture was obtained. • Total amount of cells per well: 30,000 cells • Cell proportions in tissue:
(§8) The same amounts of 1.0 mg/mL heparin solution (buffer: 100 mM Tris-HCL) and 0.3 mg/mL collagen solution (buffer: 5 mM acetate) were mixed to obtain a heparin/collagen solution.
(§9) 100 μL of the heparin/collagen solution was added to the cell mixture and suspended until the cells were visible, and then centrifuged (400 g×2 min), and a viscous component was formed in the solution.
(§10) After the supernatant was removed from the solution containing the viscous component, a 20 U/mL thrombin solution (solvent: HCM (culture medium for hepatocytes)) was added so that the final volume of the solution was “the number of wells to be seeded”×2 μL volume of the solution, and thereby a cell suspension was obtained.
(§11) 10 mg/mL of a fibrinogen solution was put into a 48 plate, and droplets were formed. The cell suspension was added into the droplets, and then left in the incubator for 40 minutes, and a fibrin gel was formed.
(§12) 0.5 mL of HCM (containing endothelial cell growth supplement) was added to each well in which the fibrin gel was formed, and a liver model was obtained as a cell structure.
as §6

[6] = test system: 3D human liver microtissues (3D hLiMT); conditions: literature data, "Outside" = Outside measurement range; cited from earlier work
[7] = test system: cell structure having a liver sinusoidal network produced using CMF (Example A); conditions: human
Description: as §1, §2, §3, §4, §5, §6

[8] = test system: cell structure having a liver sinusoidal network produced using heparin and a collagen solution (Example B); conditions: human
Description: as §5, §7, §8, §9, §10, §11, §12, §6

[9] = test system: liver sinusoidal network of liver model (PXB cells, SEC, LX2); assay: Monocrotaline administration experiment, CD31 immunostaining of liver model; assay type: cell-based, human; conditions: monocrotaline 2,000, 666, 222 or 74 μM on Day 1 and Day 4; observed Day 7; 1% DMSO
Description: 1 day (Day 1) and 4 days (Day 4) after the start of the culture of the liver model, administration was performed on the liver model by replacing the medium with a medium containing monocrotaline at a concentration of 2,000 μM, 666 μM, 222 μM, or 74 μM. Here, the compound used was dissolved in advance in DMSO at a high concentration and stored, and during administration, DMSO was contained at a concentration of 1% in the medium. Since 1% DMSO was contained in each administration condition, replacement of the medium with a medium containing only 1% DMSO was performed at the same time, and the result was used as a negative control.
For the samples on which administration was performed, a fixing treatment, a permeation treatment, blocking, a primary antibody treatment, a secondary antibody treatment, imaging and area calculation and evaluation were performed in that order. Hereinafter, the procedure from the fixing treatment to evaluation will be described. […]
The intensities of the images captured by the above method were added up to obtain a fluorescence observation image of each liver model.

[10] = "Outside" = Outside measurement range

SMILES	Toxicity [2]	Cmax [3] [µM]	IC50 [4] [µM]	IC50 [5] [µM]	other results
COc1ccccc1Oc1c(NS(=O)(=O)c2ccc(C(C)(C)C)cc2)nc(-c2ncccn2)nc1OCCO [Bosentan]	Yes	7.43	67.1	209	MOS value [IC50/Cmax] Reference Example A [1]: Outside
CCc1nn(CCCN2CCN(c3cccc(Cl)c3)CC2)c(=O)n1CCOc1ccccc1 [Nefazodone]	Yes	4.26	22.1	32.4	–
Cc1ccc(N(CC2=NCCN2)c2cccc(O)c2)cc1 [Phentolamine]	No	0.09	180	66	–
O=C(O)Cc1ccccc1Nc1c(Cl)cccc1Cl [Diclofenac]	–	10.1	64.1	232	–
O=P1(N(CCCl)CCCl)NCCCO1 (stereo not drawn) [Cyclophosphamide]	Yes	143	1670	1360	MOS value [IC50/Cmax] Reference Example A [1]: Outside; MOS value [IC50/Cmax] Reference Example B [6]: Outside
CCOC(=O)c1ncn2c1CN(C)C(=O)c1cc(F)ccc1-2 [Flumazenil]	No	1.12	–	–	MOS value [IC50/Cmax] Reference Example A [1]: Outside; MOS value [IC50/Cmax] Reference Example B [6]: Outside; DILI severity category (LKBT) ([2]; drug-induced liver injury severity category): I; MOS value [IC50/Cmax] Example A [4]: Outside; IC50 Example A [4]: Outside; MOS value [IC50/Cmax] Example B ([5]; ATP assay IC50 divided by Cmax, cell structure produced using heparin and collagen, "Outside" = Outside measurement range): Outside; IC50 Example B [5, 10]: Outside
Cc1ccc(C(=O)c2cc(O)c(O)c([N+](=O)[O-])c2)cc1 [Tolcapone]	Yes	47.6	32.4	88.7	–
C[C@H]1COc2c(N3CCN(C)CC3)c(F)cc3c(=O)c(C(=O)O)cn1c23 [Levofloxacin]	Yes	15.8	–	960	MOS value [IC50/Cmax] Reference Example A [1]: Outside; MOS value [IC50/Cmax] Reference Example B [6]: Outside; MOS value [IC50/Cmax] Example A [4]: Outside
Cc1c(C)c2c(c(C)c1O)CCC(C)(COc1ccc(CC3SC(=O)NC3=O)cc1)O2 (stereo not drawn) [Troglitazone]	Yes	–	17.1	50.2	–
C1CCC(C(CC2CCCCN2)C2CCCCC2)CC1 (stereo not drawn) [Perhexiline]	Yes	–	5.4	3.2	MOS value [IC50/Cmax] Example A [7]: 2.5; MOS value [IC50/Cmax] Example B [8]: 1.5
CN(CCOc1ccc(CC2SC(=O)NC2=O)cc1)c1ccccn1 (stereo not drawn) [Rosiglitazone]	Yes	1.04	46.5	79.1	MOS value [IC50/Cmax] Reference Example A [1]: Outside
CN(C)C(=O)Oc1ccc[n+](C)c1 [Pyridostigmine]	No	1.1	–	–	IC50 Example A [4]: Outside; IC50 Example B [5, 10]: Outside
CC(=O)Nc1ccc(O)cc1 [Acetaminophen]	Yes	165	761	868	–
Nc1cc(N2CCCCC2)nc(N)[n+]1[O-] [Minoxidil0]	–	1.19	–	–	IC50 Example A [4]: Outside; IC50 Example B [5, 10]: Outside
C[C@H]1C(=O)O[C@@H]2CCN3CC=C(COC(=O)[C@](C)(O)[C@]1(C)O)[C@H]23 [monocrotaline]	–	–	–	–	Fragmentation of liver sinusoidal network (CD31 immunostaining) [9]: liver sinusoidal network became fragmented as the monocrotaline concentration increased
CCOC(=O)CN[C@@H](C(=O)N1CC[C@H]1C(=O)NCc1ccc(/C(N)=N\O)cc1)C1CCCCC1 [Ximelagatran]	Yes	0.45	–	–	–
Cc1onc(-c2c(F)cccc2Cl)c1C(=O)N[C@@H]1C(=O)N2[C@@H]1SC(C)(C)[C@@H]2C(=O)O [Flucloxacillin]	Yes	66.1	1390	5800	–
